Reference: the supplement of paper PMC10307832

Experiments:
Test in all cases: relative viability (nuclei count vs DMSO), 5 days (fraction); higher = more cells survive
[1] = compound: C(C(=O)C(=O)O)Br [Bromopyruvate] + COc1cc2c(Oc3ccc(NC(=O)C4(C(=O)Nc5ccc(F)cc5)CC4)cc3F)ccnc2cc1OCCCN1CCOCC1 [Foretinib] (partner 0.25 µM)
Summary of the method: (§1)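 Lung cancer cell lines in 1536-well plates got either a single drug or a fixed anchor-drug dose together with five library-drug doses (not always all listed) in √10 steps, by pin tool, on the day after seeding. Nuclei were counted after 5 days, and relative viability is the treated-to-vehicle ratio of nuclei counts. Values are medians of duplicate plates.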

[2] = compound: C(C(=O)C(=O)O)Br [Bromopyruvate] + CS(=O)(=O)N1CCN(Cc2cc3nc(-c4cccc5[nH]ncc45)nc(N4CCOCC4)c3s2)CC1 [Pictilisib] (partner 1 µM)
Summary of the method: as §1

[3] = compound: CC(O)(CS(=O)(=O)c1ccc(F)cc1)C(=O)Nc1ccc(C#N)c(C(F)(F)F)c1 [Bicalutamide] + Cc1cc(Nc2cc(N3CCN(C)CC3)nc(Sc3ccc(NC(=O)C4CC4)cc3)n2)n[nH]1 [Tozasertib] (partner 0.1 µM)
Summary of the method: as §1

Bicalutamide + Olaparib = compound: CC(O)(CS(=O)(=O)c1ccc(F)cc1)C(=O)Nc1ccc(C#N)c(C(F)(F)F)c1 [Bicalutamide] + O=C(c1cc(Cc2n[nH]c(=O)c3ccccc23)ccc1F)N1CCN(C(=O)C2CC2)CC1 [Olaparib] (partner 8 µM)
Summary of the method: as §1

Cell Line | relative viability ([1]; first compound 1 µM) | relative viability ([1]; first compound 3.162 µM) | relative viability ([1]; first compound 10 µM) | relative viability ([1]; first compound 31.62 µM) | relative viability ([1]; first compound 100 µM) | relative viability ([2]; first compound 1 µM) | relative viability ([2]; first compound 3.162 µM) | relative viability ([2]; first compound 10 µM) | relative viability ([2]; first compound 31.62 µM) | relative viability ([2]; first compound 100 µM) | relative viability ([3]; first compound 0.08 µM) | relative viability ([3]; first compound 0.253 µM) | relative viability ([3]; first compound 0.8 µM) | relative viability ([3]; first compound 2.53 µM) | relative viability (Bicalutamide + Olaparib; first compound 0.08 µM) | relative viability (Bicalutamide + Olaparib; first compound 0.253 µM) | relative viability (Bicalutamide + Olaparib; first compound 0.8 µM) | relative viability (Bicalutamide + Olaparib; first compound 2.53 µM)
RERF-LC-KJ | 0.843 | 0.918 | 0.962 | 0.818 | 0.869 | 0.537 | 0.563 | 0.644 | 0.617 | 0.495 | 0.48 | 0.521 | 0.494 | 0.338 | 0.979 | 1.04 | 0.962 | 0.768
EMC-BAC-2 | 0.964 | 0.979 | 1.06 | 0.933 | 1.1 | 0.472 | 0.557 | 0.572 | 0.539 | 0.622 | 0.346 | 0.285 | 0.289 | 0.249 | 0.528 | 0.462 | 0.494 | 0.397
LK-2 | 0.865 | 1.35 | 1.57 | 1.12 | 0.894 | 0.548 | 0.526 | 0.59 | 0.704 | 0.642 | 0.19 | 0.178 | 0.152 | 0.179 | 0.629 | 0.524 | 1.12 | 0.621
NCI-H2228 | 0.798 | 0.82 | 0.941 | 0.754 | 0.794 | 0.349 | 0.37 | 0.402 | 0.416 | 0.635 | 0.208 | 0.349 | 0.202 | 0.253 | 0.748 | 0.536 | 1.16 | 0.524
NCI-H322M | 0.978 | 0.964 | 1.02 | 0.99 | 1.05 | 0.464 | 0.536 | 0.502 | 0.529 | 0.56 | 0.522 | 0.478 | 0.51 | 0.504 | 0.851 | 0.741 | 0.789 | 0.768
NCI-H1975 | 0.988 | 1.1 | 1.03 | 0.972 | 0.927 | 0.301 | 0.318 | 0.323 | 0.326 | 0.3 | 0.785 | 0.711 | 0.745 | 0.514 | 0.81 | 0.772 | 1 | 0.59
NCI-H1944 | 0.954 | 0.83 | 1.03 | 0.874 | 0.913 | 0.353 | 0.354 | 0.352 | 0.315 | 0.365 | 0.246 | 0.232 | 0.256 | 0.257 | 0.424 | 0.388 | 0.46 | 0.375
LU99A | 0.834 | 0.81 | 0.812 | 0.773 | 0.846 | 0.306 | 0.29 | 0.319 | 0.306 | 0.35 | 0.279 | 0.238 | 0.297 | 0.226 | 0.268 | 0.225 | 0.259 | 0.248
HCC-44 | – | – | – | – | – | 0.697 | 0.625 | 0.693 | 0.66 | 0.671 | 1.06 | 0.874 | 0.746 | 1.12 | 1.01 | 1.02 | 1.02 | 1.01
NCI-H1299 | 1.16 | 1.13 | 1.16 | 1.14 | 1.09 | 0.779 | 0.811 | 0.809 | 0.664 | 0.799 | – | – | – | – | 0.993 | 0.942 | 0.974 | 0.864
NCI-H1648 | – | – | – | – | – | – | – | – | – | – | – | 0.496 | 0.602 | 0.358 | – | – | 0.775 | 0.949
NCI-H1563 | 0.869 | 1.11 | 0.946 | 0.879 | 0.901 | 0.657 | 0.657 | 0.535 | 0.626 | 0.697 | – | – | – | – | – | – | – | –
A549 | 0.949 | 0.935 | 1.07 | 0.989 | 1.06 | 0.479 | 0.629 | 0.489 | 0.494 | 0.6 | – | – | – | – | 0.355 | 0.353 | 0.42 | 0.302
NCI-H522 | – | – | – | – | – | – | – | – | – | – | 0.552 | 0.627 | 0.597 | 0.543 | 0.711 | 0.599 | 0.788 | 0.693
NCI-H1623 | 0.897 | 0.879 | 0.99 | 0.927 | 0.987 | – | – | – | – | – | – | 0.445 | 0.471 | 0.463 | – | – | – | –
SW 900 | 0.902 | 0.955 | 0.665 | 0.84 | 0.898 | – | – | – | – | – | 0.651 | 0.556 | 0.592 | 0.542 | 0.798 | 0.721 | 1.21 | 0.803
IA-LM | 1.12 | 1.19 | 1.07 | 1.17 | 0.914 | 0.336 | 0.357 | 0.328 | 0.28 | 0.434 | – | – | – | – | 0.959 | 0.738 | 1.08 | 0.943
EBC-1 | 0.1 | 0.107 | 0.102 | 0.112 | 0.0941 | 0.374 | 0.467 | 0.412 | 0.42 | 0.415 | – | – | – | – | 0.707 | 0.638 | 0.746 | 0.654
